Legend:
[1] = Chemical stability of the radiotracer in PBS and n-octanol; format: physicochemical; conditions: 30 °C, 60 min, radio-HPLC
Protocol: In order to estimate the lipophilicity of [^18F]11, the partition coefficient was determined by the shake flask method using n-octanol and phosphate-buffered saline as partition system. […] The chemical stability of the radiotracer was investigated by incubation in phosphate-buffered saline (PBS) and n-octanol at 30 °C.
The determination of stability and logD value has been performed according to the procedures described by Sadeghzadeh and Wenzel et al..

[2] = In vivo metabolism in CD-1 mice (radio-HPLC of plasma and brain); conditions: mouse
Protocol: Two non-anesthetized female CD-1 mice (30 and 33 g, 90 days) were injected intravenously with [^18F]11 (28 MBq = 94 nmol/kg and 25 MBq = 78 nmol/kg). The animals were anesthetized by isoflurane inhalation at 28 min p.i. and blood was collected from the retro-orbital plexus, followed by cervical dislocation at 30 min p.i. Immediately afterwards, the brains were isolated, washed twice with isotonic saline and stored on ice. Plasma was obtained from the whole blood sample by centrifugation (8.000 rpm, 2 min, ambient temperature). All samples were weighed and the radioactivity was measured in a dose calibrator (ISOMED 2010 Dose Calibrator, NUVIA Instruments GmbH, Dresden, Germany). Afterwards, the brains were homogenized in 1 mL demineralized water on ice (Potter S, B. Braun Biotech, Melsungen, Germany).
Protein precipitation was performed by the addition of ice-cold ACN/H2O (9:1, v/v) in a ratio of 4:1 (v/v) of organic solvent to plasma or brain homogenate, respectively. The samples were vortexed for 3 min, equilibrated on ice for 3 min, and centrifuged for 10 min at 10,000 rpm and the supernatant collected. The precipitates were washed with 100 μL of the solvent mixture and subjected to the same procedure. The combined supernatants were concentrated at 70 °C under argon flow to a final volume of approximately 100 μL and analysed by analytical radio-HPLC with a gradient system (see radiochemistry general section). The peak corresponding to the radiotracer in the radio-chromatogram was identified by co-injecting the sample with the reference compound 11. To determine the percentage of activity in the supernatants compared to total activity, aliquots of each step as well as the precipitates were quantified by an automated gamma counter (1480 WIZARD, Perkin Elmer, Turku, Finland). For plasma and brain samples recoveries of ≥91% of total activity were obtained.

[3] = 30 min p.i., i.v., n = 2 (individual values)

## CCCC(O)c1ccc([18F])c(-c2nnc3c(C)nc4ccc(C5CC5)nc4n23)c1 (stereo not shown) [[^18F]11]
[1]
  chemical stability: stable
[2]; [3]
  fraction of non-metabolized radiotracer in brain: 42/50
  fraction of non-metabolized radiotracer in plasma: about 7/11
[2]; 30 min post injection
  radiometabolites in the brain (% of the activity): ~ 50%

From publication PMC9609767, “Radiosynthesis and Preclinical Evaluation of an ^18F-Labeled Triazolopyridopyrazine-Based Inhibitor for Neuroimaging of the Phosphodiesterase 2A (PDE2A)” (Pharmaceuticals, 2022)
